Results: US11505528B2, “Inhibitors of microbially induced amyloid” (Axial Therapeutics, Inc., priority 2017, dated 2022)
“Also recorded” adds a separate entry of the source. Read-outs that look alike come from different tables or passages of the source.

Tests used:
αSyn aggregates = αSyn aggregates in brain of ASO mice mono-colonized with WT E. coli, EGCG in drinking water; assay type: in vivo
[1] = system: Thy1-αSyn mice (ASO) mono-colonized with WT E. coli; test: Motor function of germ-free Thy1-αSyn (ASO) mice mono-colonized with WT E. coli, EGCG in drinking water; assay type: in vivo
[2] = molecular target: T1, α-synuclein seeded by E. coli CsgA (Homo sapiens, UniProt P37840); test: Thioflavin T cell-free assay of CsgA-seeded α-synuclein aggregation; assay type: biochemical
T1 construct: the full-length gene for untagged human α-synuclein was inserted; made in house; host or cells: α-synuclein: E. coli BL21 (DE3); CsgA: E. coli NEB 3016 slyD::kan

human α-synuclein = molecular target: T2, human α-synuclein (Homo sapiens, UniProt P37840); test: Thioflavin T cell-free assay of α-synuclein aggregation; assay type: biochemical; settings: α-synuclein 50 μM, compounds at 20-50 μM, data from 36 hours; for Inhibition of Aggregation, αSyn: ThT fluorescence, negative = potentiation
T2 construct: the full-length gene for untagged human α-synuclein was inserted; made in house; host or cells: E. coli BL21 (DE3)

E. coli CsgA = molecular target: T3, E. coli CsgA (Escherichia coli, UniProt P28307); test: Thioflavin T cell-free assay of CsgA aggregation; assay type: biochemical
T3 construct: 6xHis (C); made in house; host or cells: E. coli NEB 3016 slyD::kan
T3 sequence (P28307 23-151): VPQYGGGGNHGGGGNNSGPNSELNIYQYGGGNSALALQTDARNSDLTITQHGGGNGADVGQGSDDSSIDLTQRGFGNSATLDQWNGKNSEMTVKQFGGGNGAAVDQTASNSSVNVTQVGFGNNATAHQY

[3] = 15-16 weeks of age, EGCG ad lib in drinking water, vs vehicle treated control
[4] = read-out: Inhibition of Aggregation, CsgA-seeded αSyn
[5] = read-out: Inhibition of Aggregation, CsgA-seeded αSyn (compound activity range)
[6] = read-out: Inhibition of Aggregation, CsgA
[7] = read-out: Inhibition of Aggregation, CsgA (compound activity range)

Row | SMILES | αSyn aggregation in the striatum and midbrain (αSyn aggregates; EGCG treatment) | Proteinase K resistant αSyn aggregates in the substantia nigra (αSyn aggregates; immunofluorescence microscopy, EGCG-treated vs vehicle/untreated controls) | beam traversal time (time to cross) [1, 3] | hindlimb clasping score [1, 3] | nasal adhesive removal time (time to remove) [1, 3] | pole descent time (time to descent) [1, 3] | wire hang test (time to fall) [1, 3] | progressive motor deficits exacerbated by E. coli ([1]; assessment of motor performance, EGCG treatment) | inhibition at 50 µM [2, 4] [%] | inhibition at 50 µM [2, 5] [%] | Inhibition of Aggregation, αSyn (human α-synuclein) [%] | Inhibition of Aggregation, αSyn (compound activity range) (human α-synuclein) | inhibition at 20 µM (E. coli CsgA; [6]) [%] | inhibition at 20 µM (E. coli CsgA; [7]) [%]
1 | O=C(O[C@@H]1Cc2c(O)cc(O)cc2O[C@@H]1c1cc(O)c(O)c(O)c1)c1cc(O)c(O)c(O)c1 [EGCG, epigallocatechin gallate] | preventing | lower; also recorded: Fewer | lower | lower | lower | lower | higher | dampens | – | – | – | – | – | –
2 | O=C(Nc1cc(O)c(O)c(O)c1)c1c(-c2cc(O)c(O)c(O)c2)[nH]c2cc(O)c(O)c(O)c2c1=O [Compound 44, 5,6,7-trihydroxy-4-oxo-N,2-bis(3,4,5-trihydroxyphenyl)-1,4-dihydroquinoline-3-carboxamide] | – | – | – | – | – | – | – | – | > 90 | > 60 | 98 | (+++) ((+++) is greater than 60% inhibition) | 64 | > 60
3 | O=C(Nc1sc2c(c1C(=O)Nc1cc(O)cc(O)c1)CCCC2)c1cc(O)c(O)c(O)c1 [Compound 6, N-(3,5-dihydroxyphenyl)-2-(3,4,5-trihydroxybenzamido)-4,5,6,7-tetrahydrobenzo[b]thiophene-3-carboxamide] | – | – | – | – | – | – | – | – | > 90 | > 60 | 36 | (++) ((++) is between 30% to 60% inhibition) | 40 | 30 to 60
4 | COc1cc(OC)c2c(=O)c(C(=O)Oc3cc(OC)c(OC)c(OC)c3)c[nH]c2c1 [Compound 24, 3,4,5-trimethoxyphenyl 5,7-dimethoxy-4-oxo-1,4-dihydroquinoline-3-carboxylate] | – | – | – | – | – | – | – | – | -27 | < -10 | – | – | -1 | -10 to 10
5 | O=C(Nc1cccc(O)c1)c1c[nH]c2cc(O)c(O)c(O)c2c1=O [Compound 32, 5,6,7-trihydroxy-N-(3-hydroxyphenyl)-4-oxo-1,4-dihydroquinoline-3-carboxamide] | – | – | – | – | – | – | – | – | > 90 | > 60 | 48 | (++) ((++) is between 30% to 60% inhibition) | 53 | 30 to 60
6 | COc1cc2[nH]cc(C(=O)Nc3cccc(O)c3)c(=O)c2c(OC)c1OC [Compound 28, N-(3-hydroxyphenyl)-5,6,7-trimethoxy-4-oxo-1,4-dihydroquinoline-3-carboxamide] | – | – | – | – | – | – | – | – | < -50 | < -10 | 20 | (+) ((+) is between 10% to 30% inhibition) | -6 | -10 to 10
7 | O=C(Nc1sc2c(c1C(=O)Nc1cc(O)c(O)c(O)c1)CCCC2)c1cc(O)c(O)c(O)c1 [Compound 2, 2-(3,4,5-trihydroxybenzamido)-N-(3,4,5-trihydroxyphenyl)-4,5,6,7-tetrahydrobenzo[b]thiophene-3-carboxamide] | – | – | – | – | – | – | – | – | 63 | > 60 | 93 | (+++) ((+++) is greater than 60% inhibition) | 45 | 30 to 60
8 | O=C(Nc1cc(O)c(O)c(O)c1)c1c[nH]c2cc(O)c(O)c(O)c2c1=O [Compound 20, 5,6,7-trihydroxy-4-oxo-N-(3,4,5-trihydroxyphenyl)-1,4-dihydroquinoline-3-carboxamide] | – | – | – | – | – | – | – | – | 11 | 10 to 30 | – | – | 61 | > 60
9 | COc1cc(NC(=O)c2c[nH]c3cc(OC)c(OC)c(OC)c3c2=O)cc(OC)c1OC [Compound 19, 5,6,7-trimethoxy-4-oxo-N-(3,4,5-trimethoxyphenyl)-1,4-dihydroquinoline-3-carboxamide] | – | – | – | – | – | – | – | – | 14 | 10 to 30 | 29 | (+) ((+) is between 10% to 30% inhibition) | 18 | 10 to 30
10 | O=C(Nc1cccc(O)c1)c1c[nH]c2cc(O)cc(O)c2c1=O [Compound 48, 5,7-dihydroxy-N-(3-hydroxyphenyl)-4-oxo-1,4-dihydroquinoline-3-carboxamide] | – | – | – | – | – | – | – | – | > 90 | > 60 | 37 | (++) ((++) is between 30% to 60% inhibition) | -2 | -10 to 10
11 | COc1cc(OC)c2c(=O)c(C(=O)Nc3cccc(O)c3)c[nH]c2c1 [Compound 26, N-(3-hydroxyphenyl)-5,7-dimethoxy-4-oxo-1,4-dihydroquinoline-3-carboxamide] | – | – | – | – | – | – | – | – | < -50 | < -10 | 24 | (+) ((+) is between 10% to 30% inhibition) | 8 | -10 to 10
12 | O=C(Nc1ccccc1)c1c[nH]c2cc(O)cc(O)c2c1=O [Compound 27, 5,7-dihydroxy-4-oxo-N-phenyl-1,4-dihydroquinoline-3-carboxamide] | – | – | – | – | – | – | – | – | 79 | > 60 | 49 | (++) ((++) is between 30% to 60% inhibition) | 44 | 30 to 60
13 | COc1cc(OC(=O)c2c[nH]c3cc(OC)c(OC)c(OC)c3c2=O)cc(OC)c1OC [Compound 23, 3,4,5-trimethoxyphenyl 5,6,7-trimethoxy-4-oxo-1,4-dihydroquinoline-3-carboxylate] | – | – | – | – | – | – | – | – | -22 | < -10 | – | – | -4 | -10 to 10
14 | COc1cc(NC(=O)c2c(NC(=O)c3cc(OC)c(OC)c(OC)c3)sc3c2CCCC3)cc(OC)c1 [Compound 5, N-(3,5-dimethoxyphenyl)-2-(3,4,5-trimethoxybenzamido)-4,5,6,7-tetrahydrobenzo[b]thiophene-3-carboxamide] | – | – | – | – | – | – | – | – | – | – | 22 | (+) ((+) is between 10% to 30% inhibition) | -4 | -10 to 10
15 | COc1cc(NC(=O)c2c(N)sc3c2CCCC3)cc(OC)c1OC [Compound 14, 2-amino-N-(3,4,5-trimethoxyphenyl)-4,5,6,7-tetrahydrobenzo[b]thiophene-3-carboxamide] | – | – | – | – | – | – | – | – | 74 | > 60 | 3 | (−) ((−) is between −10% to 10% inhibition) | – | –
16 | CN(C(=O)c1c[nH]c2cc(O)cc(O)c2c1=O)c1cc(O)c(O)c(O)c1 [Compound 42, 5,7-dihydroxy-N-methyl-4-oxo-N-(3,4,5-trihydroxyphenyl)-1,4-dihydroquinoline-3-carboxamide] | – | – | – | – | – | – | – | – | > 90 | > 60 | 98 | (+++) ((+++) is greater than 60% inhibition) | 114 | > 60
17 | O=C(Nc1ccccc1O)c1c[nH]c2cc(O)c(O)c(O)c2c1=O [Compound 43, 5,6,7-trihydroxy-N-(2-hydroxyphenyl)-4-oxo-1,4-dihydroquinoline-3-carboxamide] | – | – | – | – | – | – | – | – | – | – | 63 | (++) ((++) is between 30% to 60% inhibition) | 90 | > 60
